Laboratory results taken from patent publication US6936607B2, “2,4,6-Triaminopyrimidines for the treatment of depression and/or anxiety” (H. Lunobeck A/S, priority 2002, dated 2005).

Each compound was assayed against T1, human GalR3 receptor (Homo sapiens, UniProt O60755) (assay: Radioligand binding assay at cloned human GalR3 receptor). Settings: Binding Data; membranes from LM(tk-) cells stably transfected with the human GalR3 receptor.
T1 construct: expressed in transfected cells; host or cells: mouse fibroblast LM(tk-) cells, stably transfected; membranes
T1 sequence (O60755 1-368): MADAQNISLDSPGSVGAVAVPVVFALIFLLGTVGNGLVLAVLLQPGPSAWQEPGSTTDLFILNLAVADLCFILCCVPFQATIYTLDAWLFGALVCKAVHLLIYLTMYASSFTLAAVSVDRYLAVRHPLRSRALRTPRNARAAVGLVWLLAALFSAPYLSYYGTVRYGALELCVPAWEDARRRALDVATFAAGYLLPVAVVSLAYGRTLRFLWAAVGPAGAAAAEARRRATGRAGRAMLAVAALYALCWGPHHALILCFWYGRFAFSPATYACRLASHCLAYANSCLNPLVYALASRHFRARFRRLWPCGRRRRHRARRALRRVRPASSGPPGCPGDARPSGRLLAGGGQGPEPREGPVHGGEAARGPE
Experimental: LM(tk-) cells were stably transfected with the human GalR3 receptor. cDNAs for the human and rat GalR3 receptors were transfected with a G-418 resistant gene into the mouse fibroblast LM(tk-) cell line by a calcium phosphate transfection method (Cullen, 1987). Membranes were harvested from stably transfected LM(tk-) cells. Adherent cells were washed twice in ice-cold phosphate buffered saline (138 mM NaCl, 8.1 mM Na2HPO4, 2.5 mM KCl, 1.2 mM KH2PO4, 0.9 mM CaCl2, 0.5 mM MgCl2, pH 7.4) and lysed by sonication in ice-cold sonication buffer (20 mM Tris-HCl, 5 mM EDTA, pH 7.7). Large particles and debris were cleared by low speed centrifugation (200×g, 5 min, 4° C.). Membranes were collected from the supernatant fraction by centrifugation (32,000×g, 18 min, 4° C.), washed with ice-cold hypotonic buffer, and collected again by centrifugation (32,000×g, 18 min, 4° C.). The final membrane pellet was resuspended by sonication into a small volume of ice-cold binding buffer (˜1 ml for every 5 plates: 10 mM NaCl, 20 mM HEPES, 0.22 mM KH2PO4, 1.26 mM CaCl2, 0.81 mM MgSO4, pH 7.4). Protein concentration was measured by the Bradford method (Bradford, 1976) using Bio-Rad Reagent, with bovine serum albumin as a standard. Membranes were held on ice for up to one hour and used fresh, or flash frozen and stored in liquid nitrogen. Membranes were prepared similarly from CHO cells. The methods to obtain the cDNA of the receptors, express said receptors in heterologous systems, and carry out assays to determine binding affinity are described as follows. Binding assays were performed according to the following published method: human GALR3 (PCT International Publication No. WO 02/060392).

SMILES | Ki
CN(C)c1cc(Nc2cccc(OCc3ccccc3)c2)nc(N2CCc3ccccc32)n1 [Example 42, N^4-[3-(BENZYLOXY)PHENYL]-2-(2,3-DIHYDRO-1H-INDOL-1-YL)-N^6,N^6-DIMETHYL-4,6-PYRIMIDINEDIAMINE] | 91 nM
CN(C)c1cc(Nc2ccc(SC(F)(F)F)c(Cl)c2)nc(N2CCN(c3ccccc3Cl)CC2)n1 [Example 22, 2-[4-(2-CHLOROPHENYL)-1-PIPERAZINYL]-N^4-{3-CHLORO-4-[(TRIFLUOROMETHYL) SULFANYL]PHENYL}-N^6,N^6-DIMETHYL-4,6-PYRIMIDINE DIAMINE] | 182 nM
CN(C)c1cccc(Nc2cc(N(C)C)nc(N3CCN(c4ccccn4)CC3)n2)c1 [Example 28, N^4-[3-(DIMETHYLAMINO)PHENYL]-N^6,N^6-DIMETHYL-2-[4-(2-PYRIDINYL)-1-PIPERAZINYL]-4,6-PYRIMIDINEDIAMINE] | 417 nM
CN(C)c1cc(Nc2ccc(SC(F)(F)F)c(Cl)c2)nc(N2CCN(c3cccc(Cl)c3)CC2)n1 [Example 20, 2-[4-(3-CHLOROPHENYL)-1-PIPERAZINYL]-N^4-{3-CHLORO-4-[(TRIFLUOROMETHYL) SULFANYL]PHENYL}-N^6,N^6-DIMETHYL-4,6-PYRIMIDINEDIAMINE] | 318 nM
CN(C)c1cc(Nc2ccc(Cl)c(Cl)c2)nc(N2CCN(c3ccccc3Cl)CC2)n1 [Example 21, 2-[4-(2-CHLOROPHENYL)-1-PIPERAZINYL]-N^4-(3,4-DICHLOROPHENYL)-N^6,N^6-DIMETHYL-4,6-PYRIMIDINEDIAMINE] | 63 nM
Cc1ccc(Nc2cc(N(C)C)nc(N3CCN(c4c(C(F)(F)F)ccc[n+]4[O-])CC3)n2)cc1 [Example 46, N^4,N^4-DIMETHYL-N^6-(4-METHYLPHENYL)-2-{4-[l-OXIDO-3-(TRIFLUOROMETHYL)-2-PYRIDINYL]-1-PIPERAZINYL}-4,6-PYRIMIDINEDIAMINE] | 264 nM
Cc1ccc(Nc2cc(N(C)C)nc(N3CCN(c4cccc(Cl)c4)CC3)n2)cc1 [Example 1, 2-[4-(3-CHLOROPHENYL)-1-PIPERAZINYL]-N^4,N^4-DIMETHYL-N^6-(4-METHYLPHENYL)-4,6-PYRIMIDINEDIAMINE] | 65 nM
COc1cccc(Nc2cc(N(C)C)nc(N3CCN(c4ccc(Cl)cc4)CC3)n2)c1 [Example 15, 2-[4-(4-CHLOROPHENYL)-1-PIPERAZINYL]-N^4-(3-METHOXYPHENYL)-N^6,N^6-DIMETHYL-4,6-PYRIMIDINEDIAMINE] | 88 nM
Cc1ccc(Nc2cc(N(C)C)nc(N3CCN(c4ccc(Cl)cc4)CC3)n2)cc1 [Example 7, 2-[4-(4-CHLOROPHENYL)-1-PIPERAZINYL]-N^4,N^4-DIMETHYL-N^6-(4-METHYLPHENYL)-4,6-PYRIMIDINEDIAMINE] | 352 nM
COc1cccc(Nc2cc(N(C)C)nc(N3CCN(c4cccc(Cl)c4)CC3)n2)c1 [Example 8, 2-[4-(3-CHLOROPHENYL)-1-PIPERAZINYL]-N^4-(3-METHOXYPHENYL)-N^6,N^6-DIMETHYL-4,6-PYRIMIDINEDIAMINE] | 107 nM
Clc1ccc(Nc2cc(N3CCN(c4ccccn4)CC3)nc(N3CCN(c4ccccn4)CC3)n2)cc1Cl [Example 43, N-(3,4-DICHLOROPHENYL)-2,6-BIS[4-(2-PYRIDINYL)-1-PIPERAZINYL]-4-PYRIMIDINAMINE] | 60 nM
Cc1ccc(Nc2cc(N(C)C)nc(N3CCN(c4ccccn4)CC3)n2)c(NC(C)C)c1 [Example 45, N^4-[2-(ISOPROPYLAMINO)-4-METHYLPHENYL]-N^6,N^6-DIMETHYL-2-[4-(2-PYRIDINYL)-1-PIPERAZINYL]-4,6-PYRIMIDINEDIAMINE] | 506 nM
CCNc1cccc(Nc2cc(N(C)C)nc(N3CCN(Cc4ccccc4)CC3)n2)c1 [Example 33, 2-(4-BENZYL-1-PIPERAZINYL)-N^4-[3-(ETHYLAMINO)PHENYL]N^6,N^6-DIMETHYL-4,6-PYRIMIDINEDIAMINE] | 942 nM
COc1cccc(Nc2cc(N(C)C)nc(N3CCN(c4ccccc4F)CC3)n2)c1 [Example 13, 2-[4-(2-FLUOROPHENYL)-1-PIPERAZINYL]-N^4-(3-METHOXYPHENYL)-N^6,N^6-DIMETHYL-4,6-PYRIMIDINEDIAMINE] | 93 nM
CN(C)c1cc(Nc2ccc(C3CCCCC3)cc2)nc(N2CCN(c3cccc(Cl)c3)CC2)n1 [Example 9, 2-[4-(3-CHLOROPHENYL)-1-PIPERAZINYL]-N^4-(4-CYCLOHEXYLPHENYL)-N^6,N^6-DIMETHYL-4,6-PYRIMIDINEDIAMINE] | 241 nM
CN(C)c1cc(Nc2ccc(Cl)c(Cl)c2)nc(N2CCN(c3ccc(Cl)cc3)CC2)n1 [Example 54, 2-[4-(4-CHLOROPHENYL)-1-PIPERAZINYL]-N-(3,4-DICHLOROPHENYL)-N^6,N^6-DIMETHYL-4,6-PYRIMIDINEDIAMINE] | 150 nM
CCn1ccc2ccc(Nc3cc(N(C)C)nc(N4CCN(c5ccccn5)CC4)n3)cc21 [Example 47, N^4-(1-ETHYL-1H-INDOL-6-YL)-N^6,N^6-DIMETHYL-2-[4-(2-PYRIDINYL)-1-PIPERAZINYL]-4,6-PYRIMIDINEDIAMINE] | 351 nM
CCC(C)Nc1cc(Nc2cc(N(C)C)nc(N3C[C@@H](C)O[C@@H](C)C3)n2)ccc1C (stereo partly drawn) [Example 50, N^4-[3-(SEC-BUTYLAMINO)-4-METHYLPHENYL]-2-[CIS-2,6-DIMETHYL MORPHOLINYL]-N^6,N^6-DIMETHYL-4,6-PYRIMIDINEDIAMINE] | 312 nM

These reach a lower Ki. Values come first.

Ki | SMILES
54 nM | CN(C)c1cc(Nc2ccc3c(c2)CCC3)nc(N2CCN(c3ccccc3Cl)CC2)n1 [Example 4, 2-[4-(2-CHLOROPHENYL)-1-PIPERAZINYL]-N^4-(2,3-DIHYDRO-1H-INDEN-5-YL)-N^6,N^6-DIMETHYL-4,6-PYRIMIDINEDIAMINE]
52 nM | CN(C)c1cc(Nc2ccc3c(c2)CCC3)nc(N2CCN(c3ccc(Cl)cc3)CC2)n1 [Example 6, 2-[4-(4-CHLOROPHENYL)-1-PIPERAZINYL]-N^4-(2,3-DIHYDRO-1H-INDEN-5-YL)-N^6,N^6-DIMETHYL-4,6-PYRIMIDINEDIAMINE]
46 nM | CN(C)c1cc(Nc2ccc(C3CCCCC3)cc2)nc(N2CCN(c3ccccc3F)CC2)n1 [Example 18, N^4-(4-CYCLOHEXYLPHENYL)-2-[4-(2-FLUOROPHENYL)-1-PIPERAZINYL]-N^6,N^6-DIMETHYL-4,6-PYRIMIDINEDIAMINE]
36 nM | O=C1CCN(c2cc(Nc3ccc(Cl)c(Cl)c3)nc(N3CCN(Cc4ccccc4)CC3)n2)CC1 [Example 53, 1-[2-(4-BENZYL-1-PIPERAZINYL)-6-(3,4-DICHLOROANILINO)-4-PYRIMIDINYL]-4-PIPERIDINONE]
32 nM | C[C@@H]1CN(c2nc(Nc3cccc(OCc4ccccc4)c3)cc(N(C)C)n2)C[C@H](C)O1 [Example 34, N^4-[3-(BENZYLOXY)PHENYL]-2-[CIS-2,6-DIMETHYLMORPHOLINYL]-N^6,N^6-DIMETHYL-4,6-PYRIMIDINEDIAMINE]
29 nM | Cc1ccc(Nc2cc(N(C)C)nc(N3CCN(c4ccccc4Cl)CC3)n2)cc1 [Example 3, 2-[4-(2-CHLOROPHENYL)-1-PIPERAZINYL]-N^4,N^4-DIMETHYL-N^6-(4-METHYLPHENYL)-4,6-PYRIMIDINEDIAMINE]
28 nM | CN(C)c1cc(Nc2cccc(OCc3ccccc3)c2)nc(N2CCN(c3cccc(Cl)c3)CC2)n1 [Example 27, N^4-[3-(BENZYLOXY)PHENYL]-2-[4-(3-CHLOROPHENYL)-1-PIPERAZINYL]-N^6,N^6-DIMETHYL-4,6-PYRIMIDINEDIAMINE]
27 nM | CN(C)c1cc(Nc2ccc(Cl)c(Cl)c2)nc(N2CCN(c3ccccc3F)CC2)n1 [Example 29, N^4-(3,4-DICHLOROPHENYL)-2-[4-(2-FLUOROPHENYL)-1-PIPERAZINYL]-N^6,N^6-DIMETHYL-4,6-PYRIMIDINEDIAMINE]
26 nM | CN(C)c1cc(Nc2cccc(OCc3ccccc3)c2)nc(N2CCN(c3ccc(Cl)cc3)CC2)n1 [Example 31, N^4-[3-(BENZYLOXY)PHENYL]-2-[4-(4-CHLOROPHENYL)-1-PIPERAZINYL]-N^6,N^6-DIMETHYL-4,6-PYRIMIDINEDIAMINE]
16 nM | CN(C)c1cc(Nc2cccc(OCc3ccccc3)c2)nc(N2CCN(c3ccccc3Cl)CC2)n1 [Example 25, N^4-[3-(BENZYLOXY)PHENYL]-2-[4-(2-CHLOROPHENYL)-1-PIPERAZINYL]-N^6,N^6-DIMETHYL-4,6-PYRIMIDINEDIAMINE]
15 nM | CC1CC(C)CN(c2nc(Nc3cccc(OCc4ccccc4)c3)cc(N(C)C)n2)C1 (stereo not drawn) [Example 38, N^4-[3-(BENZYLOXY)PHENYL]-2-(3,5-DIMETHYL-1-PIPERIDINYL)-N^6,N^6-DIMETHYL-4,6-PYRIMIDINEDIAMINE]
14 nM | CN(C)c1cc(Nc2cccc(OCc3ccccc3)c2)nc(N2CCN(c3ncccn3)CC2)n1 [Example 41, N-[3-(BENZYLOXY)PHENYL]-N^6,N^6-DIMETHYL-2-[4-(2-PYRIMIDINYL)-1-PIPERAZINYL]-4,6-PYRIMIDINEDIAMINE]
